Test [1] concerns the target T1, NLK (Homo sapiens, UniProt Q9UBE8).
T1 sequence (Q9UBE8 1-527): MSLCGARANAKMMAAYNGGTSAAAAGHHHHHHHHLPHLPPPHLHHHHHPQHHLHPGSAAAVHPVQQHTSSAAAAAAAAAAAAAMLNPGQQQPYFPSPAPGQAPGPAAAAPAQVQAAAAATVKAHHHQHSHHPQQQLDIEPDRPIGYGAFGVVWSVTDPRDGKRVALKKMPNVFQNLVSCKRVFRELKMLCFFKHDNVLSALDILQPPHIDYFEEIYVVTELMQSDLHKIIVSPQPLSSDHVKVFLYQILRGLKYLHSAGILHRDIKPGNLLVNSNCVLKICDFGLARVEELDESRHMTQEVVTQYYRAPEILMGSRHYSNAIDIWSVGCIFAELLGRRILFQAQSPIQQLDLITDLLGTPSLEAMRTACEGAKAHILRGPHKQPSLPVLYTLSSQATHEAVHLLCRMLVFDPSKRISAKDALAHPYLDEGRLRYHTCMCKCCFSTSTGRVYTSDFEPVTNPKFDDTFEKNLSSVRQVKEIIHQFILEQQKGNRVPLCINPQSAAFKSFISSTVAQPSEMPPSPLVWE
The experiment in a line: Kinase Profiling of SD208. To be noted: 10 μM; data not shown. It is filed as biochemical.

The test system of test [2] is RPS19. Description: RPS19 expression in differentiating HSPCs (qRT-PCR). It is filed as cell-based, human. To be noted: differentiating RPS19-insufficient HSPCs. The text has this: As the suppression of NLK by miRNAs has been documented, we sought to screen a number of common nutritional supplements that have been documented to modulate miRNAs in their ability to improve erythroid expansion in an in vitro model of DBA. To induce ribosomal insufficiency, CD34+ HSPCs from human cord blood were transduced with a shRNA against RPS19 that reduced RPS19 expression by approximately 50% to recapitulate decreased function due to RPS19 mutations in DBA patients. As described above, metformin improves erythroid expansion by miRNA-mediated suppression of NLK mRNA expression and was therefore included as a positive control. […] Efficacy of shRNA against RPS19 was quantified by qRT-PCR. […] To determine if the ginsenoside Rb1 effect was through the inhibition of NLK, we treated differentiating HSPCs with ginsenoside Rb1 that were transduced with a non-targeting control or siRNA against NLK. Ginsenoside R1 alone or siRNA against NLK alone improved erythroid expansion by 2.7- and 5.1-fold, respectively.
Background: Quantitative PCR measures a nucleic acid by following its amplification.

The target of test [3] is T1, NLK. The experiment in a line: Kinase assay of NLK immunopurified from treated differentiating human progenitors. To be noted: NLK from ginsenoside Rb1-treated RPS19-insufficient progenitors. Details: 5000 cells per treatment were lysed and immunopurified NLK was subjected to in vitro kinase assay; endogenous in cells; host or cells: human cord blood CD34+ HSPCs transduced with shLuc / shRPS19 / shRPL11, differentiating in erythroid medium. It is filed as cell-based.

Test [4] deals with zebrafish NLK 3′UTR. The experiment in a line: Luciferase fused to zebrafish NLK 3′UTR in K562 cells. It is filed as cell-based. The conditions noted are these: transient transfection in K562, metformin 72 hrs.
The subject of test [5] is miRNA species. Description: miRNA expression by qRT-PCR in differentiating murine Lin-Kit+ progenitors. It is filed as cell-based, mouse. The conditions noted are these: metformin. How it is done: (§1) FIG. 14. Metformin-mediated upregulation of miR-26a in human progenitors suppresses NLK expression. (Panel A) Human CD34+ (upper) and murine Lin-Kit+ (lower) progenitors were differentiated for 8 days in the presence or absence of metformin and the levels of indicated miRNAs were assessed by qRT-PCR. (Panel B) K562 cells stably expressing the luciferase gene coupled to the NLK 3′UTR were mock transfected, transfected with indicated miRNA mimetics, or treated with metformin, and cultured in the presence or absence of metformin for 72 hrs. After lysis, luciferase activity was determined and endogenous NLK and GAPDH protein expression was analyzed by Western blot. (Panel C) K562 cells were mock transfected, or transfected with either miR-34 or miR-26 sponges, prior to being left untreated or treated with metformin for 72 hrs. Lysed cells were subjected to luciferase assay and western blotting to examine NLK and GAPDH protein expression. […] Statistics: two-tailed Student's t test, significant *P<0.05
(§2) MessengerRNA was quantified as described (5). MicroRNA was quantified using TaqMan® Small RNA Assays (Applied Biosystems) as per manufacturer's directions and normalized to snoRNA.

Test [6] concerns miR-26a and other miRNAs (let-7, miR-30, miR-181, miR-199, miR-144). The experiment in a line: miRNA expression by qRT-PCR in differentiating human CD34+ progenitors. It is filed as cell-based. How it is done:
as §1
FIG. 15. MiR-26a mimetic substitutes for metformin in improving erythropoiesis in RPS19-insufficiency. (Panel A) Human CD34+ cells were transduced with shRNA against a control (shLuc) or RPS19 (shRPS19) and transfected with a miR-26a mimetic or a mock control. After differentiation in the absence or presence of metformin for 12 days, cells were counted and the percentage of CD235+ erythroblasts determined by flow cytometry. The calculated CD235+ population of each treatment group is represented as a percentage of the untreated control group (upper). In parallel, qRT-PCR was performed to determine mRNA expression of NLK (middle) and miR-26a (lower). (Panel B) Lin-Kit+ progenitors for RPL11+/+ and RPL+/lox mice were mock transfected or transfected with miR-26a mimetic and differentiated for 8 days. Cells were subjected to counting and the percentage of Ter119+ erythroblasts determined (upper) in conjunction with qRT-PCR examining NLK (middle) and miR-26a (lower) mRNA expression. […] Statistics: two-tailed Student's t test, significant *P<0.05
as §2

For test [7], the system named is SATB1 3′UTR. The experiment in a line: Luciferase alone or fused to SATB1 3′UTR in K562 cells. It is filed as cell-based, human. To be noted: K562, 0.5-50 mM, 72 hrs. How it is done: FIG. 12. NLK 3′UTR facilitates metformin-mediated NLK suppression. (Panel A) K562 cells stabling expressing luciferase alone (top portion), luciferase expressed behind a minimal promoter and the NLK proximal promoter (2nd portion), luciferase immediately upstream of the human NLK 3′UTR (3rd portion) or luciferase with the SATB1 3′UTR (bottom portion) were grown in the presence of 0, 0.5, 5.0 or 50.0 mM of metformin for 72 hrs. Cell were pelleted and either processed for luciferase assay (left portion) or western blot analysis of endogenous NLK (upper right portion) or GAPDH (lower right portion). (Panel B) Luciferase immediately upstream of the human (upper), murine (middle) and zebrafish (lower) NLK 3′UTR were transiently transfected into human K562 (left) and cultured with indicated concentrations of metformin for 72 hrs. Lysates were assessed for luciferase activity and endogenous NLK and GAPDH protein expression by Western blotting. […] Statistics: two-tailed Student's t test, significant *P<0.05
In parallel with measuring luciferase activity, the response of endogenous NLK protein expression was monitored by Western blot analysis with a high degree of correlation.

Consider three compounds from patent publication US12403132B2, “Methods of treating bone marrow failure syndromes and compositions for use in the same” (The Board of Trustees of the Leland Stanford Junior …, priority 2020, dated 2025).

For the compound `Fc1ccc(Cl)cc1-c1nc(Nc2ccncc2)c2nccnc2n1` [SD208], the “NLK kinase activity inhibited” value in test [1] is reported as 96.8%.
`CC(C)=CCC[C@](C)(O[C@@H]1O[C@H](CO[C@@H]2O[C@H](CO)[C@@H](O)[C@H](O)[C@H]2O)[C@@H](O)[C@H](O)[C@H]1O)[C@H]1CC[C@]2(C)[C@@H]1[C@H](O)C[C@@H]1[C@@]3(C)CC[C@H](O[C@@H]4O[C@H](CO)[C@@H](O)[C@H](O)[C@H]4O[C@@H]4O[C@H](CO)[C@@H](O)[C@H](O)[C@H]4O)C(C)(C)[C@@H]3CC[C@]12C` [ginsenoside Rb1]: in test [2], the “influence on RPS19 expression” value was “did not influence”. Further, the “reduced NLK kinase activity” value in test [3] was found to be 44.8%.
With `CN(C)C(=N)N=C(N)N` [metformin], the “decrease of luciferase activity, zebrafish 3′UTR” value in test [4] stood at 43.6%. Also, in test [5], the “upregulation of miRNA species” value was “none of the miRNA species examined demonstrated significant upregulation”. Also, the miR-26a level in test [6] (RPS19-insufficiency) worked out at 2.5 fold; in test [6] (control), 2.4 fold. In test [6] (human CD34+ progenitors in erythroid media, metformin, 8 days), the “upregulation of miR-26a” value was determined as 2.4 fold. The “expression of other miRNA species (let-7, miR-30, miR-181, miR-199, miR-144)” value in test [6] (human CD34+ progenitors, metformin) is on record as “did not alter”. In addition, in test [7], the “metformin sensitivity of luciferase alone or fused with SATB1 3′UTR” value is recorded as “did not result in metformin sensitivity”.
